# Reference: US12018021B2 (UCB Biopharma SRL, priority 2018, dated 2024)
# Target: IgE-Tb / sFcεRIα-Y131A-AF488 (Homo sapiens, UniProt P01854, N146Q/N252Q)
# Assay: IgE-Tb / sFcεRIα-Y131A-AF488 FRET assay (protocol for examples 234 to 501)
# Assay type: binding
# Conditions: examples 234 to 501: compound with IgE-Tb 30 minutes before sFcεRIα-Y131A-AF488, incubated 18 hours at room temperature; read-out: Y131A FRET IC50 range
# Procedure, shortened: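 Read-out is the 520/490 nm emission ratio (337 nm excitation) after 18 h at room temperature, background subtracted, fitted four-parameter for IC50. Final reagents: 5 nM IgE-Tb, preincubated 30 min with compound (top typically 10 μM, 2% DMSO, 3-fold 10-point), plus 25 nM sFcεRIα-Y131A-AF488.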
# Sequence of IgE-Tb / sFcεRIα-Y131A-AF488 (P01854 whole entry N146Q/N252Q): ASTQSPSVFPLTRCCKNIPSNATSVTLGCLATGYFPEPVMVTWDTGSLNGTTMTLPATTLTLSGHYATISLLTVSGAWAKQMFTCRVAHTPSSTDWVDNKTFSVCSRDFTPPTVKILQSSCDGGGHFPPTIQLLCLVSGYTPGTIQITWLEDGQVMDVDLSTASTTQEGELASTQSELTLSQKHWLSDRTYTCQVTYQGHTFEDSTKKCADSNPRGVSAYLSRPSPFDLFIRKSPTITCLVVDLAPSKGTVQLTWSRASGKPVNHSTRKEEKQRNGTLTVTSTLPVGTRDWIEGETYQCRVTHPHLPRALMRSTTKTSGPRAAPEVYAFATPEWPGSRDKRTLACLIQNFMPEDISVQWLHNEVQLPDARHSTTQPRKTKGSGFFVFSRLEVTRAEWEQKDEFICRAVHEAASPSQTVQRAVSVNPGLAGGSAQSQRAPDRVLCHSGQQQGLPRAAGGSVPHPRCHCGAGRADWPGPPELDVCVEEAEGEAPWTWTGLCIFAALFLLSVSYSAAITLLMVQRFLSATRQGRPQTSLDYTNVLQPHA
row,SMILES,IC50
1,"CSc1cccc(Nc2nncn2[C@H]2CCc3sc(NC(=O)C4CC4)c(C(=O)NCC4CC4)c3C2)c1 [Example 249, (5S)-2-(cyclopropanecarbonylamino)-N-(cyclopropylmethyl)-5-[3-(3-methylsulfanylanilino)-1,2,4-triazol-4-yl]-4,5,6,7-tetrahydrobenzothiophene-3-carboxamide]",< 1 µM
2,"CS(=O)(=O)c1cccc(Nc2nncn2[C@H]2CCc3sc(NC(=O)C4CC4)c(C(=O)NCC4CC4)c3C2)c1 [Example 250, (5S)-2-(cyclopropanecarbonylamino)-N-(cyclopropylmethyl)-5-[3-(3-methylsulfonylanilino)-1,2,4-triazol-4-yl]-4,5,6,7-tetrahydrobenzothiophene-3-carboxamide]",< 1 µM
3,"C[S+]([O-])c1cccc(Nc2nncn2[C@H]2CCc3sc(NC(=O)C4CC4)c(C(=O)NCC4CC4)c3C2)c1 (stereo partly drawn) [Example 251, (5S)-2-(cyclopropanecarbonylamino)-N-(cyclopropylmethyl)-5-[3-(3-methylsulfinylanilino)-1,2,4-triazol-4-yl]-4,5,6,7-tetrahydrobenzothiophene-3-carboxamide]",< 1 µM
4,"C[S+]([O-])c1cccc(Nc2nncn2[C@H]2CCc3sc(NC(=O)C4CC45CC5)c(C(=O)NCC4CC4)c3C2)n1 (stereo partly drawn) [Example 255, (5S)—N-(cyclopropylmethyl)-5-[3-[(6-methylsulfinyl-2-pyridyl)amino]-1,2,4-triazo-4-yl]-2-(spiro[2.2]pentane-2-carbonylamino)-4,5,6,7-tetrahydrobenzothiophene-3-carboxamide]",< 1 µM
5,"COc1ccc2c(c1)Nc1c(ncn1[C@H]1CCc3sc(NC(=O)C4CC4)c(C(=O)NCC4CC4)c3C1)C(=O)N2 [Example 257, (5S)-2-(cyclopropanecarbonylamino)-N-(cyclopropylmethyl)-5-(8-methoxy-4-oxo-5,10-dihydroimidazo[4,5-c][1,5]benzodiazepin-1-yl)-4,5,6,7-tetrahydrobenzothiophene-3-carboxamide]",< 1 µM
6,"COc1ccc2c(c1)Nc1c(ncn1[C@H]1CCc3sc(NC(=O)C4CC4)c(C(=O)NCC4CC4)c3C1)C(=O)N2C [Example 258, (5S)-2-(cyclopropanecarbonylamino)-N-(cyclopropylmethyl)-5-(8-methoxy-5-methyl-4-oxo-10H-imidazo[4,5-c][1,5]benzodiazepin-1-yl)-4,5,6,7-tetrahydrobenzothiophene-3-carboxamide]",< 1 µM
7,"Nc1c(C(=O)N2CC[C@@H](O)C2)ncn1[C@H]1CCc2sc(NC(=O)C3CC3)c(C(=O)NCC3CC3)c2C1 [Example 260, (5S)-5-[5-amino-4-[(3R)-3-hydroxypyrrolidine-1-carbonyl]imidazol-1-yl]-2-(cyclopropanecarbonylamino)-N-(cyclopropylmethyl)-4,5,6,7-tetrahydrobenzothiophene-3-carboxamide]",< 1 µM
8,"C[C@H]1CCCN1C(=O)c1ncn([C@H]2CCc3sc(NC(=O)C4CC4)c(C(=O)NCC4CC4)c3C2)c1N [Example 261, (5S)-5-[5-amino-4-[(2S)-2-methylpyrrolidine-1-carbonyl]imidazol-1-yl]-2-(cyclopropanecarbonylamino)-N-(cyclopropylmethyl)-4,5,6,7-tetrahydrobenzothiophene-3-carboxamide]",< 1 µM
9,"CCOC(=O)c1ncn([C@H]2CCc3sc(NC(=O)C4CC4)c(C(=O)NCC4CC4)c3C2)c1Nc1c([N+](=O)[O-])c(C)nn1C [Example 262, Ethyl 1-[(5S)-2-(cyclopropanecarbonylamino)-3-(cyclopropylmethylcarbamoyl)-4,5,6,7-tetrahydrobenzothiophen-5-yl]-5-[(2,5-dimethyl-4-nitro-pyrazol-3-yl)amino]imidazole-4-carboxylate]",< 1 µM
10,"Cc1c(Nc2nncn2[C@H]2CCc3sc(NC(=O)C4CC4)c(C(=O)NCC4CC4)c3C2)cccc1[S+](C)[O-] (stereo partly drawn) [Example 263, (5S)-2-(cyclopropanecarbonylamino)-N-(cyclopropylmethyl)-5-[3-(2-methyl-3-methylsulfinyl-anilino)-1,2,4-triazol-4-yl]-4,5,6,7-tetrahydrobenzothiophene-3-carboxamide]",< 1 µM
11,"Cc1c(Nc2nncn2[C@H]2CCc3sc(NC(=O)C4CC4)c(C(=O)NCC4CC4)c3C2)cccc1S(C)(=O)=O [Example 264, (5S)-2-(cyclopropanecarbonylamino)-N-(cyclopropylmethyl)-5-[3-(2-methyl-3-methylsulfonyl-anilino)-1,2,4-triazol-4-yl]-4,5,6,7-tetrahydrobenzothiophene-3-carboxamide]",< 1 µM
12,"Cn1nc(-c2ncco2)cc1Nc1nncn1[C@H]1CCc2sc(NC(=O)C3CC3)c(C(=O)NCC3CC3)c2C1 [Example 265, (5S)-2-(cyclopropanecarbonylamino)-N-(cyclopropylmethyl)-5-[3-[(2-methyl-5-oxazol-2-yl-pyrazol-3-yl)amino]-1,2,4-triazol-4-yl]-4,5,6,7-tetrahydrobenzothiophene-3-carboxamide]",< 1 µM
13,"CC(=O)N1CC[C@H](Nc2nncn2[C@H]2CCc3sc(NC(=O)C4CC4)c(C(=O)NCC4CC4)c3C2)C1 [Example 266, (5S)-5-[3-[[(3S)-1-acetylpyrrolidin-3-yl]amino]-1,2,4-triazol-4-yl]-2-(cyclopropanecarbonylamino)-N-(cyclopropylmethyl)-4,5,6,7-tetrahydrobenzothiophene-3-carboxamide]",< 1 µM
14,"CS(=O)(=O)N1CC[C@H](Nc2nncn2[C@H]2CCc3sc(NC(=O)C4CC4)c(C(=O)NCC4CC4)c3C2)C1 [Example 267, (5S)-2-(cyclopropanecarbonylamino)-N-(cyclopropylmethyl)-5-[3-[[(3S)-1-methylsulfonylpyrrolidin-3-yl]amino]-1,2,4-triazol-4-yl]-4,5,6,7-tetrahydrobenzothiophene-3-carboxamide]",< 1 µM
15,"CS(=O)(=O)N1CC[C@@H](Nc2nncn2[C@H]2CCc3sc(NC(=O)C4CC4)c(C(=O)NCC4CC4)c3C2)C1 [Example 268, (5S)-2-(cyclopropanecarbonylamino)-N-(cyclopropylmethyl)-5-[3-[[(3R)-1-methylsulfonylpyrrolidin-3-yl]amino]-1,2,4-triazol-4-yl]-4,5,6,7-tetrahydrobenzothiophene-3-carboxamide]",< 1 µM
16,"O=C1CC(Nc2nncn2[C@H]2CCc3sc(NC(=O)C4CC4)c(C(=O)NCC4CC4)c3C2)CN1 (stereo partly drawn) [Example 270, (5S)-2-(cyclopropanecarbonylamino)-N-(cyclopropylmethyl)-5-[3-[(5-oxopyrrolidin-3-yl)amino]-1,2,4-triazol-4-yl]-4,5,6,7-tetrahydrobenzothiophene-3-carboxamide]",< 1 µM
17,"O=C1CC(Nc2nncn2[C@H]2CCc3sc(NC(=O)C4CC4)c(C(=O)NCC4CC4)c3C2)CCN1 (stereo partly drawn) [Example 272, (5S)-2-(cyclopropanecarbonylamino)-N-(cyclopropylmethyl)-5-[3-[(2-oxo-4-piperidyl)amino]-1,2,4-triazol-4-yl]-4,5,6,7-tetrahydrobenzothiophene-3-carboxamide]",< 1 µM
18,"CC(=O)N1CCC(Nc2nncn2[C@H]2CCc3sc(NC(=O)C4CC4)c(C(=O)NCC4CC4)c3C2)C1C (stereo partly drawn) [Example 273, (5S)-5-[3-[(1-acetyl-2-methyl-pyrrolidin-3-yl)amino]-1,2,4-triazol-4-yl]-2-(cyclopropanecarbonylamino)-N-(cyclopropylmethyl)-4,5,6,7-tetrahydrobenzothiophene-3-carboxamide]",< 1 µM
19,"CC(=O)N1CCC(Nc2nncn2[C@H]2CCc3sc(NC(=O)C4CC4)c(C(=O)NCC4CC4)c3C2)CC1 [Example 286, (5S)-5-[3-[(1-acetyl-4-piperidyl)amino]-1,2,4-triazol-4-yl]-2-(cyclopropanecarbonylamino)-N-(cyclopropylmethyl)-4,5,6,7-tetrahydrobenzothiophene-3-carboxamide]",< 1 µM
20,"COC(=O)N1CC[C@H](Nc2nncn2[C@H]2CCc3sc(NC(=O)C4CC4)c(C(=O)NCC4CC4)c3C2)C1 [Example 287, Methyl (3S)-3-[[4-[(5S)-2-(cyclopropanecarbonylamino)-3-(cyclopropylmethylcarbamoyl)-4,5,6,7-tetrahydrobenzothiophen-5-yl]-1,2,4-triazol-3-yl]amino]pyrrolidine-1-carboxylate]",< 1 µM
21,"CCNC(=O)N1CC[C@H](Nc2nncn2[C@H]2CCc3sc(NC(=O)C4CC4)c(C(=O)NCC4CC4)c3C2)C1 [Example 288, (3S)-3-[[4-[(5S)-2-(cyclopropanecarbonylamino)-3-(cyclopropylmethylcarbamoyl)-4,5,6,7-tetrahydrobenzothiophen-5-yl]-1,2,4-triazol-3-yl]amino]-N-ethyl-pyrrolidine-1-carboxamide]",< 1 µM
22,"Cn1nc(OC(F)(F)F)cc1Nc1nncn1[C@H]1CCc2sc(NC(=O)[C@H]3C[C@H]3F)c(C(=O)NCC3CC3)c2C1 [Example 292, (5S)—N-(cyclopropylmethyl)-2-[[(1R,2R)-2-fluorocyclopropanecarbonyl]amino]-5-[3-[[2-methyl-5-(trifluoromethoxy)pyrazol-3-yl]amino]-1,2,4-triazol-4-yl]-4,5,6,7-tetrahydrobenzothiophene-3-carboxamide]",< 1 µM
23,"Cn1nc(OC(F)(F)Cl)cc1Nc1nncn1[C@H]1CCc2sc(NC(=O)[C@H]3C[C@H]3F)c(C(=O)NCC3CC3)c2C1 [Example 293, (5S)-5-[3-[[5-[chloro(difluoro)methoxy]-2-methyl-pyrazol-3-yl]amino]-1,2,4-triazol-4-yl]-N-(cyclopropylmethyl)-2-[[(1R,2R)-2-fluorocyclopropanecarbonyl]amino]-4,5,6,7-tetrahydrobenzothiophene-3-carboxamide]",< 1 µM
